Results published in patent publication US20120029187A1, “HALOALKYLSULFONANILIDE DERIVATIVE” (Nissan Chemical Industries, Ltd., priority 2009, published 2012).

Experiments:
Type in all cases: in vivo
[1] = system: barnyardgrass; test: Test Example 1: herbicidal effects in preemergence treatment under submerged conditions; conditions: dose 2.52 g/a
Excerpt: (§1) Test on the Herbicidal Effects in Preemergence Treatment on Weeds Under Submerged Conditions
(§2) Alluvial soil was put in 1/30000-are styrol cups and admixed with water so that it was submerged at a depth of 4 cm. In each cup, seeds of barnyardgrass, bulrush and ducksalad were sown together, and rice seedlings at the 2.5-leaf stage were transplanted. On the same day as the seeding, emulsifiable concentrates containing compounds of the present invention formulated in accordance with Formulation Example 2 were applied to the water surfaces at predetermined doses after diluted with water. The cups were placed in a greenhouse at 25 to 30° C. to grow the plants. Three weeks after the application, the herbicidal effects against various plants were determined on the following evaluation scale.
(§3) 5 mortality of 90% or above (nearly complete death)
(§4) 4 mortality of at least 70% and less than 90%
(§5) 3 mortality of at least 40% and less than 70%
(§6) 2 mortality of at least 20% and less than 40%
(§7) 1 mortality of at least 5% and less than 20%
(§8) 0 mortality of less than 5% (almost ineffective)
(§9) A: barnyardgrass, B: bulrush, C: ducksalad, D: large crabgrass, E: giant foxtail, F: wild oat, G: water foxtail, H: Italian ryegrass, I: velvetleaf, J: common ragweed, K: redroot pigweed, L: common lambsquater, M: posumbu knotweed, N: common chickweed, O: beadstraw, a: transplanted rice, b: corn, c: soybean, d: direct-seeded rice, e: wheat, f: sugar beet.
(§10) The doses (g/a) represents the amounts in g per 1 are (a) applied after adjustment of concentration adjustment.

[2] = system: bulrush; test: as above; conditions: dose 2.52 g/a
Excerpt: as §1, §2, §3, §4, §5, §6, §7, §8, §9, §10

[3] = system: ducksalad; test: as above; conditions: dose 2.52 g/a
Excerpt: as §1, §2, §3, §4, §5, §6, §7, §8, §9, §10

[4] = system: transplanted rice; test: Test Example 1: preemergence treatment under submerged conditions, effect on crop; conditions: dose 2.52 g/a
Excerpt: as §1, §2, §3, §4, §5, §6, §7, §8, §9, §10

[5] = system: barnyardgrass; test: Test Example 2: herbicidal effects during the vegetation period under submerged conditions; conditions: treatment during the vegetation period under submerged conditions; dose 2.52 g/a
Description: (§11) Test on the Herbicidal Effects on Weeds During the Vegetation Period Under Submerged Conditions
(§12) Alluvial soil was put in 1/30000-are styrol cups and admixed with water so that it was submerged at a depth of 4 cm. In each cup, seeds of barnyardgrass, bulrush and ducksalad were sown together, and the cups were placed in a greenhouse at 25 to 30° C. to grow the plants. When the barnyardgrass, bulrush and ducksalad reached the 1- or 2-leaf stage, emulsifiable concentrates containing compounds of the present invention formulated in accordance with Formulation Example 2 were applied to the water surfaces at predetermined doses after diluted with water. Three weeks after the application, the herbicidal effects against various plants were determined on the same evaluation scale as in Test Example 1.
as §9, §10

[6] = system: bulrush; test: as above; conditions: treatment during the vegetation period under submerged conditions; dose 2.52 g/a
Description: as §11, §12, §9, §10

[7] = system: ducksalad; test: as above; conditions: treatment during the vegetation period under submerged conditions; dose 2.52 g/a
Description: as §11, §12, §9, §10

[8] = system: Italian ryegrass; test: Test Example 3: herbicidal effects in soil treatment; conditions: dose 3.2 g/a
Excerpt: (§13) Test on the Herbicidal Effects in Soil Treatment
(§14) Sterilized diluvial soil was put in plastic boxes with a length of 21 cm, a width of 13 cm and a depth of 7 cm, and seeds of barnyardgrass, large crabgrass, giant foxtail, wild oat, blackgrass, velvetleaf, common ragweed, redroot pigweed, common lambsquater, posumbu knotweed, common chickweed corn, soybean, rice, wheat and sugar beet were sown in spots and covered with an about 1.5 cm-thick soil layer. Emulsifiable concentrates containing compounds of the present invention formulated in accordance with Formulation Example 2 were uniformly applied to the soil surfaces at predetermined doses through a small sprayer after dilute with water. Three weeks after the application, the herbicidal effects against various plants were determined on the same evaluation scale as in Test Example 1.
as §9, §10

[9] = system: barnyardgrass; test: as above; conditions: dose 3.2 g/a
Excerpt: as §13, §14, §9, §10

[10] = system: common chickweed; test: as above; conditions: dose 3.2 g/a
Excerpt: as §13, §14, §9, §10

[11] = system: common lambsquater; test: as above; conditions: dose 3.2 g/a
Excerpt: as §13, §14, §9, §10

[12] = system: common ragweed; test: as above; conditions: dose 3.2 g/a
Excerpt: as §13, §14, §9, §10

[13] = system: giant foxtail; test: as above; conditions: dose 3.2 g/a
Excerpt: as §13, §14, §9, §10

[14] = system: large crabgrass; test: as above; conditions: dose 3.2 g/a
Excerpt: as §13, §14, §9, §10

[15] = system: posumbu knotweed; test: as above; conditions: dose 3.2 g/a
Excerpt: as §13, §14, §9, §10

[16] = system: redroot pigweed; test: as above; conditions: dose 3.2 g/a
Excerpt: as §13, §14, §9, §10

[17] = system: water foxtail; test: as above; conditions: dose 3.2 g/a
Excerpt: as §13, §14, §9, §10

[18] = system: Italian ryegrass; test: Test Example 4: herbicidal effect in foliage treatment; conditions: dose 3.2 g/a, three weeks after the application
Excerpt: (§15) Test on the Herbicidal Effect in Foliage Treatment
as §14, with “chickweed,” for “chickweed”, “The boxes were placed in a greenhouse at 25 to 30° C. to grow the plants. After 14 days, emulsifiable” for “Emulsifiable”, “foliage” for “soil surfaces”, “diluted” for “dilute”
as §9, §10

[19] = system: barnyardgrass; test: as above; conditions: dose 3.2 g/a, three weeks after the application
Excerpt: as §15
as §14, with “chickweed,” for “chickweed”, “The boxes were placed in a greenhouse at 25 to 30° C. to grow the plants. After 14 days, emulsifiable” for “Emulsifiable”, “foliage” for “soil surfaces”, “diluted” for “dilute”
as §9, §10

[20] = system: beadstraw; test: as above; conditions: dose 3.2 g/a, three weeks after the application
Excerpt: as §15
as §14, with “chickweed,” for “chickweed”, “The boxes were placed in a greenhouse at 25 to 30° C. to grow the plants. After 14 days, emulsifiable” for “Emulsifiable”, “foliage” for “soil surfaces”, “diluted” for “dilute”
as §9, §10

[21] = system: common chickweed; test: as above; conditions: dose 3.2 g/a, three weeks after the application
Excerpt: as §15
as §14, with “chickweed,” for “chickweed”, “The boxes were placed in a greenhouse at 25 to 30° C. to grow the plants. After 14 days, emulsifiable” for “Emulsifiable”, “foliage” for “soil surfaces”, “diluted” for “dilute”
as §9, §10

[22] = system: common lambsquater; test: as above; conditions: dose 3.2 g/a, three weeks after the application
Excerpt: as §15
as §14, with “chickweed,” for “chickweed”, “The boxes were placed in a greenhouse at 25 to 30° C. to grow the plants. After 14 days, emulsifiable” for “Emulsifiable”, “foliage” for “soil surfaces”, “diluted” for “dilute”
as §9, §10

[23] = system: common ragweed; test: as above; conditions: dose 3.2 g/a, three weeks after the application
Excerpt: as §15
as §14, with “chickweed,” for “chickweed”, “The boxes were placed in a greenhouse at 25 to 30° C. to grow the plants. After 14 days, emulsifiable” for “Emulsifiable”, “foliage” for “soil surfaces”, “diluted” for “dilute”
as §9, §10

[24] = system: giant foxtail; test: as above; conditions: dose 3.2 g/a, three weeks after the application
Excerpt: as §15
as §14, with “chickweed,” for “chickweed”, “The boxes were placed in a greenhouse at 25 to 30° C. to grow the plants. After 14 days, emulsifiable” for “Emulsifiable”, “foliage” for “soil surfaces”, “diluted” for “dilute”
as §9, §10

[25] = system: large crabgrass; test: as above; conditions: dose 3.2 g/a, three weeks after the application
Excerpt: as §15
as §14, with “chickweed,” for “chickweed”, “The boxes were placed in a greenhouse at 25 to 30° C. to grow the plants. After 14 days, emulsifiable” for “Emulsifiable”, “foliage” for “soil surfaces”, “diluted” for “dilute”
as §9, §10

[26] = system: posumbu knotweed; test: as above; conditions: dose 3.2 g/a, three weeks after the application
Excerpt: as §15
as §14, with “chickweed,” for “chickweed”, “The boxes were placed in a greenhouse at 25 to 30° C. to grow the plants. After 14 days, emulsifiable” for “Emulsifiable”, “foliage” for “soil surfaces”, “diluted” for “dilute”
as §9, §10

[27] = system: redroot pigweed; test: as above; conditions: dose 3.2 g/a, three weeks after the application
Excerpt: as §15
as §14, with “chickweed,” for “chickweed”, “The boxes were placed in a greenhouse at 25 to 30° C. to grow the plants. After 14 days, emulsifiable” for “Emulsifiable”, “foliage” for “soil surfaces”, “diluted” for “dilute”
as §9, §10

[28] = system: velvetleaf; test: as above; conditions: dose 3.2 g/a, three weeks after the application
Excerpt: as §15
as §14, with “chickweed,” for “chickweed”, “The boxes were placed in a greenhouse at 25 to 30° C. to grow the plants. After 14 days, emulsifiable” for “Emulsifiable”, “foliage” for “soil surfaces”, “diluted” for “dilute”
as §9, §10

[29] = system: water foxtail; test: as above; conditions: dose 3.2 g/a, three weeks after the application
Excerpt: as §15
as §14, with “chickweed,” for “chickweed”, “The boxes were placed in a greenhouse at 25 to 30° C. to grow the plants. After 14 days, emulsifiable” for “Emulsifiable”, “foliage” for “soil surfaces”, “diluted” for “dilute”
as §9, §10

SMILES: CCOC(=O)N(c1ccccc1CN1OCC(C(F)(F)F)OC1=O)S(=O)(=O)C(F)(F)F (centres unmarked) [III-9]
- A: barnyardgrass, herbicidal effect (evaluation scale 0-5) [1]: 4 (mortality of at least 70% and less than 90%)
- B: bulrush, herbicidal effect (evaluation scale 0-5) [2]: 5 (mortality of 90% or above (nearly complete death))
- C: ducksalad, herbicidal effect (evaluation scale 0-5) [3]: 0 (mortality of less than 5% (almost ineffective))
- a: transplanted rice, effect on crop (evaluation scale 0-5) [4]: 0 (mortality of less than 5% (almost ineffective))
- A: barnyardgrass, herbicidal effect (evaluation scale 0-5) [5]: 4 (mortality of at least 70% and less than 90%)
- B: bulrush, herbicidal effect (evaluation scale 0-5) [6]: 5 (mortality of 90% or above (nearly complete death))
- C: ducksalad, herbicidal effect (evaluation scale 0-5) [7]: 4 (mortality of at least 70% and less than 90%)
- herbicidal effect, H: Italian ryegrass [8]: 0 (mortality of less than 5% (almost ineffective))
- herbicidal effect, A: barnyardgrass [9]: 2 (mortality of at least 20% and less than 40%)
- herbicidal effect, N: common chickweed [10]: 1 (mortality of at least 5% and less than 20%)
- herbicidal effect, L: common lambsquater [11]: 3 (mortality of at least 40% and less than 70%)
- herbicidal effect, J: common ragweed [12]: 0 (mortality of less than 5% (almost ineffective))
- herbicidal effect, E: giant foxtail [13]: 2 (mortality of at least 20% and less than 40%)
- herbicidal effect, D: large crabgrass [14]: 0 (mortality of less than 5% (almost ineffective))
- herbicidal effect, M: posumbu knotweed [15]: 1 (mortality of at least 5% and less than 20%)
- herbicidal effect, K: redroot pigweed [16]: 0 (mortality of less than 5% (almost ineffective))
- herbicidal effect, G: water foxtail [17]: 5 (mortality of 90% or above (nearly complete death))
- H: Italian ryegrass, herbicidal effect [18]: 0 (mortality of less than 5% (almost ineffective))
- A: barnyardgrass, herbicidal effect [19]: 0 (mortality of less than 5% (almost ineffective))
- O: beadstraw, herbicidal effect [20]: 3 (mortality of at least 40% and less than 70%)
- N: common chickweed, herbicidal effect [21]: 3 (mortality of at least 40% and less than 70%)
- L: common lambsquater, herbicidal effect [22]: 2 (mortality of at least 20% and less than 40%)
- J: common ragweed, herbicidal effect [23]: 0 (mortality of less than 5% (almost ineffective))
- E: giant foxtail, herbicidal effect [24]: 0 (mortality of less than 5% (almost ineffective))
- D: large crabgrass, herbicidal effect [25]: 0 (mortality of less than 5% (almost ineffective))
- M: posumbu knotweed, herbicidal effect [26]: 2 (mortality of at least 20% and less than 40%)
- K: redroot pigweed, herbicidal effect [27]: 0 (mortality of less than 5% (almost ineffective))
- I: velvetleaf, herbicidal effect [28]: 3 (mortality of at least 40% and less than 70%)
- G: water foxtail, herbicidal effect [29]: 5 (mortality of 90% or above (nearly complete death))
